Test results taken from the supplement of paper PMC8612539.
In brackets after ≈: the same amount, converted by molar mass.

Tested on: Mannheimia haemolytica
Experiment: minimum inhibitory concentration (MIC)
Protocol: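 Broth microdilution MIC (Sensititre BOPO7F bovine plate, CLSI methods) of 19 antimicrobials against field isolates of P. multocida, M. haemolytica, H. somni (deep nasopharyngeal swabs) and E. coli, Enterococcus spp. (rectal swabs) from weaned dairy heifers. Incubation 16-24 h at 35 C. MIC is the lowest concentration preventing visible growth. Values with <= or > lie at the tested range limits. Trimethoprim-sulfamethoxazole is given as the trimethoprim component of a 1:19 mixture.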

CCCNC[C@]1(O)[C@H](C)O[C@@H](O[C@H]2[C@H](C)[C@@H](O[C@@H]3O[C@H](C)C[C@H](N(C)C)[C@H]3O)[C@](C)(O)C[C@@H](C)CN[C@H](C)[C@@H](O)[C@](C)(O)[C@@H](CC)OC(=O)[C@@H]2C)C[C@@]1(C)OC [Tulathromycin]
Settings	minimum inhibitory concentration [µg/mL]
isolate (source animal id): 8	≤ 8
isolate (source animal id): 13	≤ 8
isolate (source animal id): 18	≤ 8
isolate (source animal id): 21	≤ 8
isolate (source animal id): 25	16 (≈ 19.8 µM)
isolate (source animal id): 27	16 (≈ 19.8 µM)
isolate (source animal id): 28	≤ 8
isolate (source animal id): 30	≤ 8
isolate (source animal id): 31	16 (≈ 19.8 µM)
isolate (source animal id): 32	≤ 8
isolate (source animal id): 34	≤ 8
isolate (source animal id): 36	16 (≈ 19.8 µM)
isolate (source animal id): 37	16 (≈ 19.8 µM)
isolate (source animal id): 40	≤ 8
isolate (source animal id): 41	≤ 8
isolate (source animal id): 43	≤ 8
isolate (source animal id): 46	16 (≈ 19.8 µM)
isolate (source animal id): 49	16 (≈ 19.8 µM)
isolate (source animal id): 50	16 (≈ 19.8 µM)
isolate (source animal id): 51	≤ 8
isolate (source animal id): 52	≤ 8
isolate (source animal id): 53	≤ 8
isolate (source animal id): 55	≤ 8
isolate (source animal id): 56	≤ 8
isolate (source animal id): 57	> 64
isolate (source animal id): 100	16 (≈ 19.8 µM)
isolate (source animal id): 103	16 (≈ 19.8 µM)
isolate (source animal id): 107	16 (≈ 19.8 µM)
isolate (source animal id): 108	16 (≈ 19.8 µM)
isolate (source animal id): 112	> 64
isolate (source animal id): 113	> 64
isolate (source animal id): 121	16 (≈ 19.8 µM)
isolate (source animal id): 122	16 (≈ 19.8 µM)
isolate (source animal id): 123	> 64
isolate (source animal id): 126	64 (≈ 79.4 µM)
isolate (source animal id): 133	> 64
isolate (source animal id): 135	> 64
isolate (source animal id): 138	64 (≈ 79.4 µM)
isolate (source animal id): 141	> 64
isolate (source animal id): 142	64 (≈ 79.4 µM)
isolate (source animal id): 145	16 (≈ 19.8 µM)
isolate (source animal id): 149	≤ 8
isolate (source animal id): 151	≤ 8
isolate (source animal id): 152	16 (≈ 19.8 µM)
isolate (source animal id): 154	≤ 8
isolate (source animal id): 159	> 64
isolate (source animal id): 162	64 (≈ 79.4 µM)
isolate (source animal id): 170	≤ 8
isolate (source animal id): 171	≤ 8
isolate (source animal id): 172	≤ 8
isolate (source animal id): 173	≤ 8
isolate (source animal id): 179	≤ 8
isolate (source animal id): 180	≤ 8
isolate (source animal id): 183	≤ 8
isolate (source animal id): 186	≤ 8
isolate (source animal id): 187	≤ 8
isolate (source animal id): 188	≤ 8
isolate (source animal id): 190	≤ 8
isolate (source animal id): 191	≤ 8
isolate (source animal id): 192	≤ 8
isolate (source animal id): 201	≤ 8
isolate (source animal id): 202	≤ 8
isolate (source animal id): 209	≤ 8
isolate (source animal id): 211	≤ 8
isolate (source animal id): 220	≤ 8
isolate (source animal id): 221	≤ 8
isolate (source animal id): 223	≤ 8
isolate (source animal id): 233	16 (≈ 19.8 µM)
isolate (source animal id): 237	32 (≈ 39.7 µM)
isolate (source animal id): 241	16 (≈ 19.8 µM)
isolate (source animal id): 252	16 (≈ 19.8 µM)
isolate (source animal id): 253	16 (≈ 19.8 µM)
isolate (source animal id): 259	> 64
isolate (source animal id): 260	16 (≈ 19.8 µM)
isolate (source animal id): 262	16 (≈ 19.8 µM)
isolate (source animal id): 282	> 64
isolate (source animal id): 287	16 (≈ 19.8 µM)
isolate (source animal id): 288	≤ 8
isolate (source animal id): 291	≤ 8
isolate (source animal id): 293	16 (≈ 19.8 µM)
isolate (source animal id): 298	> 64
isolate (source animal id): 299	> 64
isolate (source animal id): 300	≤ 8
isolate (source animal id): 302	> 64
isolate (source animal id): 304	> 64
isolate (source animal id): 306	≤ 8
isolate (source animal id): 308	≤ 8
isolate (source animal id): 309	≤ 8
isolate (source animal id): 313	32 (≈ 39.7 µM)
isolate (source animal id): 318	≤ 8
isolate (source animal id): 320	≤ 8
isolate (source animal id): 321	32 (≈ 39.7 µM)
isolate (source animal id): 323	> 64
isolate (source animal id): 324	16 (≈ 19.8 µM)
isolate (source animal id): 326	32 (≈ 39.7 µM)
isolate (source animal id): 328	32 (≈ 39.7 µM)
isolate (source animal id): 329	32 (≈ 39.7 µM)
isolate (source animal id): 333	32 (≈ 39.7 µM)
isolate (source animal id): 335	16 (≈ 19.8 µM)
isolate (source animal id): 338	16 (≈ 19.8 µM)

CCC[C@@H]1C[C@@H](C(=O)N[C@@H]([C@H]2O[C@H](SC)[C@H](O)[C@@H](O)[C@H]2O)[C@H](C)Cl)N(C)C1 [Clindamycin]
Settings	minimum inhibitory concentration [µg/mL]
isolate (source animal id): 8	16 (≈ 37.6 µM)
isolate (source animal id): 13	16 (≈ 37.6 µM)
isolate (source animal id): 18	16 (≈ 37.6 µM)
isolate (source animal id): 21	16 (≈ 37.6 µM)
isolate (source animal id): 25	> 16
isolate (source animal id): 27	16 (≈ 37.6 µM)
isolate (source animal id): 28	16 (≈ 37.6 µM)
isolate (source animal id): 30	16 (≈ 37.6 µM)
isolate (source animal id): 31	16 (≈ 37.6 µM)
isolate (source animal id): 32	8 (≈ 18.8 µM)
isolate (source animal id): 34	16 (≈ 37.6 µM)
isolate (source animal id): 36	16 (≈ 37.6 µM)
isolate (source animal id): 37	16 (≈ 37.6 µM)
isolate (source animal id): 40	8 (≈ 18.8 µM)
isolate (source animal id): 41	16 (≈ 37.6 µM)
isolate (source animal id): 43	16 (≈ 37.6 µM)
isolate (source animal id): 46	16 (≈ 37.6 µM)
isolate (source animal id): 49	16 (≈ 37.6 µM)
isolate (source animal id): 50	16 (≈ 37.6 µM)
isolate (source animal id): 51	16 (≈ 37.6 µM)
isolate (source animal id): 52	16 (≈ 37.6 µM)
isolate (source animal id): 53	8 (≈ 18.8 µM)
isolate (source animal id): 55	8 (≈ 18.8 µM)
isolate (source animal id): 56	16 (≈ 37.6 µM)
isolate (source animal id): 57	> 16
isolate (source animal id): 100	16 (≈ 37.6 µM)
isolate (source animal id): 103	16 (≈ 37.6 µM)
isolate (source animal id): 107	16 (≈ 37.6 µM)
isolate (source animal id): 108	16 (≈ 37.6 µM)
isolate (source animal id): 112	> 16
isolate (source animal id): 113	> 16
isolate (source animal id): 121	> 16
isolate (source animal id): 122	16 (≈ 37.6 µM)
isolate (source animal id): 123	> 16
isolate (source animal id): 126	> 16
isolate (source animal id): 133	> 16
isolate (source animal id): 135	> 16
isolate (source animal id): 138	> 16
isolate (source animal id): 141	> 16
isolate (source animal id): 142	> 16
isolate (source animal id): 145	8 (≈ 18.8 µM)
isolate (source animal id): 149	8 (≈ 18.8 µM)
isolate (source animal id): 151	8 (≈ 18.8 µM)
isolate (source animal id): 152	16 (≈ 37.6 µM)
isolate (source animal id): 154	8 (≈ 18.8 µM)
isolate (source animal id): 159	> 16
isolate (source animal id): 162	> 16
isolate (source animal id): 170	16 (≈ 37.6 µM)
isolate (source animal id): 171	8 (≈ 18.8 µM)
isolate (source animal id): 172	16 (≈ 37.6 µM)
isolate (source animal id): 173	16 (≈ 37.6 µM)
isolate (source animal id): 179	8 (≈ 18.8 µM)
isolate (source animal id): 180	16 (≈ 37.6 µM)
isolate (source animal id): 183	16 (≈ 37.6 µM)
isolate (source animal id): 186	8 (≈ 18.8 µM)
isolate (source animal id): 187	16 (≈ 37.6 µM)
isolate (source animal id): 188	16 (≈ 37.6 µM)
isolate (source animal id): 190	16 (≈ 37.6 µM)
isolate (source animal id): 191	16 (≈ 37.6 µM)
isolate (source animal id): 192	8 (≈ 18.8 µM)
isolate (source animal id): 201	16 (≈ 37.6 µM)
isolate (source animal id): 202	8 (≈ 18.8 µM)
isolate (source animal id): 209	16 (≈ 37.6 µM)
isolate (source animal id): 211	16 (≈ 37.6 µM)
isolate (source animal id): 220	16 (≈ 37.6 µM)
isolate (source animal id): 221	16 (≈ 37.6 µM)
isolate (source animal id): 223	8 (≈ 18.8 µM)
isolate (source animal id): 233	16 (≈ 37.6 µM)
isolate (source animal id): 237	16 (≈ 37.6 µM)
isolate (source animal id): 241	16 (≈ 37.6 µM)
isolate (source animal id): 252	16 (≈ 37.6 µM)
isolate (source animal id): 253	16 (≈ 37.6 µM)
isolate (source animal id): 259	> 16
isolate (source animal id): 260	16 (≈ 37.6 µM)
isolate (source animal id): 262	16 (≈ 37.6 µM)
isolate (source animal id): 282	> 16
isolate (source animal id): 287	> 16
isolate (source animal id): 288	16 (≈ 37.6 µM)
isolate (source animal id): 291	16 (≈ 37.6 µM)
isolate (source animal id): 293	> 16
isolate (source animal id): 298	> 16
isolate (source animal id): 299	> 16
isolate (source animal id): 300	8 (≈ 18.8 µM)
isolate (source animal id): 302	> 16
isolate (source animal id): 304	> 16
isolate (source animal id): 306	16 (≈ 37.6 µM)
isolate (source animal id): 308	16 (≈ 37.6 µM)
isolate (source animal id): 309	16 (≈ 37.6 µM)
isolate (source animal id): 313	16 (≈ 37.6 µM)
isolate (source animal id): 318	8 (≈ 18.8 µM)
isolate (source animal id): 320	16 (≈ 37.6 µM)
isolate (source animal id): 321	16 (≈ 37.6 µM)
isolate (source animal id): 323	> 16
isolate (source animal id): 324	16 (≈ 37.6 µM)
isolate (source animal id): 326	> 16
isolate (source animal id): 328	16 (≈ 37.6 µM)
isolate (source animal id): 329	16 (≈ 37.6 µM)
isolate (source animal id): 333	16 (≈ 37.6 µM)
isolate (source animal id): 335	16 (≈ 37.6 µM)
isolate (source animal id): 338	16 (≈ 37.6 µM)
